The source made the active and inactive calls. The calls are words filed in the database; no cut-off is given here.
Columns and labels:
U-87 MG = test: Antiproliferative activity against human U-87 MG cells assessed as inhibition of cell growth at 100 uM incubated for 48 hrs by MTT assay; format: functional
U-251 = test: Antiproliferative activity against human U-251 cells assessed as inhibition of cell growth at 100 uM incubated for 48 hrs by MTT assay; format: functional
T98G = test: Antiproliferative activity against human T98G cells assessed as inhibition of cell growth at 100 uM incubated for 48 hrs by MTT assay; format: functional, cell-based

Compound | Activity (U-87 MG; U-87MG ATCC) | Activity (U-251) | Activity (T98G) | Activity (U-87 MG)
CO[C@@H]1C2=C(OC(C)(C)CC2=O)[C@@H]2O[C@@]23C[C@@H](OC(C)=O)C(C)(C)O[C@@H]13 | inactive | inactive | inactive | –
CC(=O)O[C@@H]1Cc2c(cc3c(c2O)OC(C)(C)CC3=O)OC1(C)C | inactive | inactive | inactive | –
CC(=O)O[C@@H]1C[C@]23O[C@H]2[C@]2(O)CC(C)=CC(=O)C2=C[C@@H]3OC1(C)C | inactive | inactive | inactive | –
C=C(C)C#C[C@]12O[C@H]1[C@@H]1OC(C)(C)[C@H](OC(C)=O)C[C@@]13O[C@H]3[C@@H]2OC(C)=O | – | >50% | – | >50%
